Columns and labels:
[1] = system: pressor; experiment: pressor efficiency, inhibition activity pA2; type: in vivo; details: decimal commas
Excerpt: (§1) Certain biological effects of the analogs of oxytocin and vasopressin are set forth in Table I. The inhibition effects of compounds in an in vitro test are expressed as values of pA2, which is the negative logarithm of the molar concentration of inhibitor. This reduces the response of 2X units of an agonistic compound to be equal to the response of 1X units in the absence of inhibitor (Schild, Brit. J. Pharmacol. 2, 189, 1947; Dyckes et al, J. Med. Chem. 17, 160, 1974). In an […] test (uterus in vitro), the value of pA2 corresponds with the negative logarithm of an inhibitor constant according to the relationship [formula] wherein B is the concentration of inhibitor (M), A50 is the concentration of agonistic compound leading to 50% of the maximum effect, and A50B is the concentration of agonistic compound leading to 50% of the maximum effect in the presence of inhibitor B (Eggena et al, J. Gen. Physiol. 52, 465, 1968).

[2] = system: galactogogic; experiment: galactogogic efficiency, inhibition activity pA2; type: in vivo; details: for Inhibition activity pA2 in the determination of efficiency galactogogic: decimal commas
Excerpt: as §1

[3] = system: uterus in vitro; experiment: uterotonic efficiency in vitro, inhibition activity pA2; type: cell-based; details: pA2, negative logarithm of molar inhibitor concentration; decimal commas
Excerpt: as §1

[4] = system: uterus in situ; experiment: uterotonic efficiency in situ, inhibition activity pA2; type: in vivo; details: pA2, negative logarithm of inhibitor constant; decimal commas
Excerpt: as §1

Row | Compound | Inhibition activity pA2 in the determination of efficiency pressor [1] | galactogogic agonistic activity ([2]; footnote b: agonistic activity, not pA2) | Inhibition activity pA2 in the determination of efficiency uterotonic in vitro [3] | Inhibition activity pA2 in the determination of efficiency uterotonic in situ [4] | Inhibition activity pA2 in the determination of efficiency galactogogic [2]
1 | CC[C@H](C)[C@@H]1NC(=O)[C@H](Cc2ccc(OC)cc2)NC(=O)[C@@H](NC(C)=O)C(C)(C)SSC[C@@H](C(=O)N2CCC[C@H]2C(=O)N[C@@H](CC(C)C)C(=O)NCC(N)=O)NC(=O)[C@H](CC(N)=O)NC(=O)[C@H](CCC(N)=O)NC1=O [Ic, [1-N-acetylpenicilamine, 2-O-methyltyrosine]oxytocin] | 6,4 | 0,45 I.U./mg | 5,4 |  | 
2 | COc1ccc(C[C@@H]2NC(=O)[C@@H](N)C(C)(C)SSC[C@@H](C(=O)N3CCC[C@H]3C(=O)N[C@@H](CCCCN)C(=O)NCC(N)=O)NC(=O)[C@H](CC(N)=O)NC(=O)[C@H](CCC(N)=O)NC(=O)[C@H](Cc3ccccc3)NC2=O)cc1 [If, [1-Penicilamine, 2-O-methyltyrosine, 8-lysine]vasopressin] | 7,4 |  | 8,1 | 6,9 | 6,8
3 | COc1ccc(C[C@@H]2NC(=O)[C@@H](NC(C)=O)C(C)(C)SSC[C@@H](C(=O)N3CCC[C@H]3C(=O)N[C@@H](CCCCN)C(=O)NCC(N)=O)NC(=O)[C@H](CC(N)=O)NC(=O)[C@H](CCC(N)=O)NC(=O)[C@H](Cc3ccccc3)NC2=O)cc1 [Ig, [1-N-acetylpenicilamine, 2-O-methyltyrosine, 8-lysine]vasopressin] | 6,7 |  |  |  | ineffective
4 | CC1(C)SSC[C@@H](C(=O)N2CCC[C@H]2C(=O)N[C@@H](CCCCN)C(=O)NCC(N)=O)NC(=O)[C@H](CC(N)=O)NC(=O)[C@H](CCC(N)=O)NC(=O)[C@H](Cc2ccccc2)NC(=O)[C@H](Cc2ccc(O)cc2)NC(=O)[C@H]1N [Id, [1-Penicilamine, 8-lysine]vasopressin] | 6,9 |  | 6,6 | 6,3 | 
5 | CC1(C)SSC[C@H](N)C(=O)N[C@@H](Cc2ccc(O)cc2)C(=O)N[C@@H](Cc2ccccc2)C(=O)N[C@@H](CCC(N)=O)C(=O)N[C@@H](CC(N)=O)C(=O)N[C@@H]1C(=O)N1CCC[C@H]1C(=O)N[C@@H](CCCCN)C(=O)NCC(N)=O [Ih, [6-Penicilamine, 8-lysine]vasopressin] | 6,73 |  | 6,00 | 6,16 | 
6 | [1-Penicilamine, 2-O-methyltyrosine]oxytocin [Ib] | 7,2 |  | 8,0 | 6,9 | 6,8
7 | CC[C@H](C)[C@@H]1NC(=O)[C@H](Cc2ccc(O)cc2)NC(=O)[C@@H](NC(C)=O)C(C)(C)SSC[C@@H](C(=O)N2CCC[C@H]2C(=O)N[C@@H](CC(C)C)C(=O)NCC(N)=O)NC(=O)[C@H](CC(N)=O)NC(=O)[C@H](CCC(N)=O)NC1=O [Ia, [1-N-acetylpenicilamine]oxytocin] | ineffective |  | 4,4 |  | 
8 | CC1(C)SSC(C)(C)[C@@H](C(=O)N2CCC[C@H]2C(=O)N[C@@H](CCCCN)C(=O)NCC(N)=O)NC(=O)[C@H](CC(N)=O)NC(=O)[C@H](CCC(N)=O)NC(=O)[C@H](Cc2ccccc2)NC(=O)[C@H](Cc2ccc(O)cc2)NC(=O)[C@H]1N [Ii, [1-Penicilamine, 6-penicilamine, 8-lysine]vasopressin] | 7,18 |  | 6,80 | 6,80 | 
9 | CC(=O)N[C@@H]1C(=O)N[C@@H](Cc2ccc(O)cc2)C(=O)N[C@@H](Cc2ccccc2)C(=O)N[C@@H](CCC(N)=O)C(=O)N[C@@H](CC(N)=O)C(=O)N[C@H](C(=O)N2CCC[C@H]2C(=O)N[C@@H](CCCCN)C(=O)NCC(N)=O)CSSC1(C)C [Ie, [1-N-Actylpenicilamine, 8-lysine]vasopressin] | ineffective |  | 5,5 | 6,3 | ineffective
